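Where inhibition never reached the appropriate level, the endpoint shown equals the highest concentration tested. Otherwise, values were interpolated linearly from a five-concentration, 48-hour dose response in 96-well plates. Abbreviation: GI50, concentration required for 50% inhibition of growth. TGI marks complete inhibition of growth.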
Experiments:
Test in all cases: growth of human tumour cells (NCI), 48 h
MCF7 breast = test system: MCF7 breast
SF-268 CNS = test system: SF-268 CNS
COLO 205 colon = test system: COLO 205 colon
HCT-15 colon = test system: HCT-15 colon
NCI-H23 lung = test system: NCI-H23 lung
UACC-62 melanoma = test system: UACC-62 melanoma
MDA-MB-468 breast = test system: MDA-MB-468 breast
UO-31 renal = test system: UO-31 renal
TK-10 renal = test system: TK-10 renal
PC-3 prostate = test system: PC-3 prostate
SF-295 CNS = test system: SF-295 CNS
A498 renal = test system: A498 renal
OVCAR-8 ovarian = test system: OVCAR-8 ovarian
RPMI-8226 leukemia = test system: RPMI-8226 leukemia
HOP-62 NSCLC = test system: HOP-62 NSCLC
SR leukemia = test system: SR leukemia
HOP-92 NSCLC = test system: HOP-92 NSCLC
HS 578T breast = test system: HS 578T breast
NCI-H460 lung = test system: NCI-H460 lung
HCC-2998 colon = test system: HCC-2998 colon
NCI/ADR-RES ovarian = test system: NCI/ADR-RES ovarian
SW-620 colon = test system: SW-620 colon
MOLT-4 leukemia = test system: MOLT-4 leukemia
OVCAR-4 ovarian = test system: OVCAR-4 ovarian
OVCAR-5 ovarian = test system: OVCAR-5 ovarian
RXF 393 renal = test system: RXF 393 renal
DU-145 prostate = test system: DU-145 prostate
K-562 leukemia = test system: K-562 leukemia
SK-MEL-2 melanoma = test system: SK-MEL-2 melanoma
MALME-3M melanoma = test system: MALME-3M melanoma
SK-OV-3 ovarian = test system: SK-OV-3 ovarian
SK-MEL-28 melanoma = test system: SK-MEL-28 melanoma
MDA-MB-231 breast = test system: MDA-MB-231 breast
HT29 colon = test system: HT29 colon
NCI-H226 lung = test system: NCI-H226 lung
HL-60(TB) leukemia = test system: HL-60(TB) leukemia
ACHN renal = test system: ACHN renal
EKVX NSCLC = test system: EKVX NSCLC
OVCAR-3 ovarian = test system: OVCAR-3 ovarian
T-47D breast = test system: T-47D breast
NCI-H522 lung = test system: NCI-H522 lung
MDA-MB-435 = test system: MDA-MB-435
SK-MEL-5 melanoma = test system: SK-MEL-5 melanoma
CAKI-1 renal = test system: CAKI-1 renal
HCT-116 colon = test system: HCT-116 colon
M14 melanoma = test system: M14 melanoma
SNB-19 CNS = test system: SNB-19 CNS
786-0 renal = test system: 786-0 renal
U251 CNS = test system: U251 CNS
IGROV1 ovarian = test system: IGROV1 ovarian
SNB-75 CNS = test system: SNB-75 CNS
KM12 colon = test system: KM12 colon
CCRF-CEM leukemia = test system: CCRF-CEM leukemia
A549 NSCLC = test system: A549 NSCLC
LOX IMVI melanoma = test system: LOX IMVI melanoma
BT-549 breast = test system: BT-549 breast
SF-539 CNS = test system: SF-539 CNS
SN12C renal = test system: SN12C renal
UACC-257 melanoma = test system: UACC-257 melanoma

O=c1ccc(Cn2c(C(F)(F)F)cc3c(Cl)ncnc32)c[nH]1
GI50 (MCF7 breast): 21.1 µM
TGI (MCF7 breast): 67.9 µM
GI50 (SF-268 CNS): 10.6 µM
TGI (SF-268 CNS): 28.9 µM
GI50 (COLO 205 colon): 86.6 µM
TGI (COLO 205 colon): > 100 µM
GI50 (HCT-15 colon): 2.93 µM
TGI (HCT-15 colon): 14.9 µM
GI50 (NCI-H23 lung): 3.97 µM
TGI (NCI-H23 lung): 18.4 µM
GI50 (UACC-62 melanoma): 5.55 µM
TGI (UACC-62 melanoma): 19.7 µM
GI50 (MDA-MB-468 breast): 2.1 µM
TGI (MDA-MB-468 breast): 5.73 µM
GI50 (UO-31 renal): 5.05 µM
TGI (UO-31 renal): 19.2 µM
GI50 (TK-10 renal): > 100 µM
TGI (TK-10 renal): > 100 µM
GI50 (PC-3 prostate): 17.1 µM
TGI (PC-3 prostate): 55.8 µM
GI50 (SF-295 CNS): 28.2 µM
TGI (SF-295 CNS): > 100 µM
GI50 (A498 renal): > 100 µM
TGI (A498 renal): > 100 µM
GI50 (OVCAR-8 ovarian): 3.51 µM
TGI (OVCAR-8 ovarian): 17.3 µM
GI50 (RPMI-8226 leukemia): 23 µM
TGI (RPMI-8226 leukemia): > 100 µM
GI50 (HOP-62 NSCLC): 46.7 µM
TGI (HOP-62 NSCLC): > 100 µM
GI50 (SR leukemia): 2.73 µM
TGI (SR leukemia): 11.8 µM
GI50 (HOP-92 NSCLC): 23 µM
TGI (HOP-92 NSCLC): > 100 µM
GI50 (HS 578T breast): 8.76 µM
TGI (HS 578T breast): 50.4 µM
GI50 (NCI-H460 lung): 12 µM
TGI (NCI-H460 lung): 36.2 µM
GI50 (HCC-2998 colon): 2.9 µM
TGI (HCC-2998 colon): 10.1 µM
GI50 (NCI/ADR-RES ovarian): 14.2 µM
TGI (NCI/ADR-RES ovarian): 40.3 µM
GI50 (SW-620 colon): 5.55 µM
TGI (SW-620 colon): 26.3 µM
GI50 (MOLT-4 leukemia): 3.21 µM
TGI (MOLT-4 leukemia): 17.2 µM
GI50 (OVCAR-4 ovarian): 17.9 µM
TGI (OVCAR-4 ovarian): 44.6 µM
GI50 (OVCAR-5 ovarian): 61.7 µM
TGI (OVCAR-5 ovarian): > 100 µM
GI50 (RXF 393 renal): 11.2 µM
TGI (RXF 393 renal): 32.1 µM
GI50 (DU-145 prostate): 38.7 µM
TGI (DU-145 prostate): > 100 µM
GI50 (K-562 leukemia): 2.83 µM
TGI (K-562 leukemia): > 100 µM
GI50 (SK-MEL-2 melanoma): 16.9 µM
TGI (SK-MEL-2 melanoma): 32.6 µM
GI50 (MALME-3M melanoma): 15.9 µM
TGI (MALME-3M melanoma): 35 µM
GI50 (SK-OV-3 ovarian): 44.3 µM
TGI (SK-OV-3 ovarian): > 100 µM
GI50 (SK-MEL-28 melanoma): 3.9 µM
TGI (SK-MEL-28 melanoma): 18.7 µM
GI50 (MDA-MB-231 breast): 4.65 µM
TGI (MDA-MB-231 breast): 18.2 µM
GI50 (HT29 colon): 29 µM
TGI (HT29 colon): > 100 µM
GI50 (NCI-H226 lung): 31.7 µM
TGI (NCI-H226 lung): > 100 µM
GI50 (HL-60(TB) leukemia): 2.1 µM
TGI (HL-60(TB) leukemia): 5.97 µM
GI50 (ACHN renal): 22.2 µM
TGI (ACHN renal): > 100 µM
GI50 (EKVX NSCLC): 14.2 µM
TGI (EKVX NSCLC): 36 µM
GI50 (OVCAR-3 ovarian): 14.9 µM
TGI (OVCAR-3 ovarian): 32.8 µM
GI50 (T-47D breast): 30.3 µM
TGI (T-47D breast): > 100 µM
GI50 (NCI-H522 lung): 2.05 µM
TGI (NCI-H522 lung): 4.85 µM
GI50 (MDA-MB-435): 4.69 µM
TGI (MDA-MB-435): 20.5 µM
GI50 (SK-MEL-5 melanoma): 4.06 µM
TGI (SK-MEL-5 melanoma): 15 µM
GI50 (CAKI-1 renal): 23.5 µM
TGI (CAKI-1 renal): 99.4 µM
GI50 (HCT-116 colon): 3.51 µM
TGI (HCT-116 colon): 29.2 µM
GI50 (M14 melanoma): 4.08 µM
TGI (M14 melanoma): 22.1 µM
GI50 (SNB-19 CNS): 20.7 µM
TGI (SNB-19 CNS): 59.4 µM
GI50 (786-0 renal): 43.5 µM
TGI (786-0 renal): > 100 µM
GI50 (U251 CNS): 22.5 µM
TGI (U251 CNS): 69.2 µM
GI50 (IGROV1 ovarian): 2.29 µM
TGI (IGROV1 ovarian): 6.09 µM
GI50 (SNB-75 CNS): 10.7 µM
TGI (SNB-75 CNS): 23.2 µM
GI50 (KM12 colon): 17.9 µM
TGI (KM12 colon): 40.3 µM
GI50 (CCRF-CEM leukemia): 4.32 µM
TGI (CCRF-CEM leukemia): > 100 µM
GI50 (A549 NSCLC): 64.8 µM
TGI (A549 NSCLC): > 100 µM
GI50 (LOX IMVI melanoma): 1.65 µM
TGI (LOX IMVI melanoma): 3.11 µM
GI50 (BT-549 breast): 14 µM
TGI (BT-549 breast): 28.8 µM
GI50 (SF-539 CNS): 17.3 µM
TGI (SF-539 CNS): 40.9 µM
GI50 (SN12C renal): 6.42 µM
TGI (SN12C renal): 23.4 µM
GI50 (UACC-257 melanoma): 3.18 µM
TGI (UACC-257 melanoma): 12.9 µM

Source: PubChem BioAssay (NCI)
